# Laboratory results taken from patent publication US9034865B2, “Pyrido [4,3-B] indole and pyrido [3,4-B] indole derivatives and methods of use” (Medivation Technologies, Inc., priority 2010, dated 2015).
# Legend:
# [1] = target: T1, human recombinant histamine H1 receptor (Homo sapiens, UniProt P35367); assay: Histamine H1 radioligand binding ([3H]Pyrilamine); settings: compound at 0.1 μM; 1.2 nM [3H]Pyrilamine; read-out: Binding data (Percentage inhibition) Histamine H1 (0.1 μM)
# T1 construct: expressed in transfected cells; host or cells: CHO-K1
# Protocol: To evaluate in radioligand binding assays the activity of compounds of the invention, human recombinant histamine H1 receptor expressed in Chinese hamster ovary (CHO) K1 cells (De Backer, M. et al, Biochem. Biophys. Res. Comm. 197(3):1601, 1993) in a modified Tris-HCl buffer (50 mM Tris-HCl, pH 7.4, 2 mM MgCl2, 100 mM NaCl, 250 mM Sucrose) was used. Compounds of the invention were incubated with 1.2 nM [^3H]Pyrilamine for 180 min at 25° C. Non-specific binding was estimated in the presence of 1 μM Pyrilamine. Receptor proteins were filtered and washed, the filters were then counted to determine [^3H]Pyrilamine specifically bound. Compounds were screened at 1 μM or lower, using 1% DMSO as vehicle. Biochemical assay results are presented as the percent inhibition of specific binding in Table 2.
# [2] = target: T2, human recombinant serotonin (5-Hydroxytryptamine) 5-HT2C receptor (Homo sapiens, UniProt P28335); assay: Serotonin 5-HT2C radioligand binding ([3H]Mesulergine); settings: compound at 0.1 μM; read-out: Percentage inhibition of ligand binding, Serotonin (0.1 μM) 5-HT2C
# T2 construct: expressed in transfected cells; host or cells: CHO-K1
# T2 sequence (P28335 33-458): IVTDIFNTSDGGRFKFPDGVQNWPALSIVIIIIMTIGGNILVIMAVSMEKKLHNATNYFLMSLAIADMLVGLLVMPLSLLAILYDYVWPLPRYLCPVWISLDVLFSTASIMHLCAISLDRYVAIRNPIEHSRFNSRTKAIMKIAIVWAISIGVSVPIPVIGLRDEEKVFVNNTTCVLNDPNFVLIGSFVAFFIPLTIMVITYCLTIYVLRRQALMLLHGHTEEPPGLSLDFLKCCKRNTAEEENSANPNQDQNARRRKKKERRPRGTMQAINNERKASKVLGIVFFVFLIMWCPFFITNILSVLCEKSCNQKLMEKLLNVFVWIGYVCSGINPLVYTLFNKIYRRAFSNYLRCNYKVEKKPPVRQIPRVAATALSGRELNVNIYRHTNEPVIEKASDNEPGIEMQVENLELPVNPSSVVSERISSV
# Protocol: To evaluate in radioligand binding assays the activity of compounds of the invention, human recombinant serotonin (5-Hydroxytryptamine) 5-HT2C receptor expressed in Chinese hamster ovary (CHO) K1 cells (Wolf, W. et al, J. Neurochem. 69:1449, 1997) in a modified Tris-HCl buffer (50 mM Tris-HCl, pH 7.4, 0.1% Ascorbic Acid, 10 μM Pargyline) was used. Compounds of the invention were incubated with 1 nM [^3H]Mesulergine for 60 min at 25° C. Non-specific binding was estimated in the presence of 1 μM Mianserin. Receptor proteins were filtered and washed, the filters were then counted to determine [^3H]Mesulergine specifically bound. Compounds were screened at 1 μM or lower, using 1% DMSO as vehicle. Biochemical assay results are presented as the percent inhibition of specific binding in Table 4.
# [3] = target: T3, rat adrenergic α1A receptor (Rattus norvegicus, UniProt P43140); assay: Adrenergic α1A radioligand binding ([3H]Prazosin); settings: compound at 0.1 μM; read-out: Percentage inhibition of ligand binding, Adrenergic (0.1 μM) α1A
# T3 construct: rat adrenergic α1A receptor obtained from Wistar Rat submaxillary glands; from tissue; host or cells: Wistar rat submaxillary glands
# T3 sequence (P43140 1-466): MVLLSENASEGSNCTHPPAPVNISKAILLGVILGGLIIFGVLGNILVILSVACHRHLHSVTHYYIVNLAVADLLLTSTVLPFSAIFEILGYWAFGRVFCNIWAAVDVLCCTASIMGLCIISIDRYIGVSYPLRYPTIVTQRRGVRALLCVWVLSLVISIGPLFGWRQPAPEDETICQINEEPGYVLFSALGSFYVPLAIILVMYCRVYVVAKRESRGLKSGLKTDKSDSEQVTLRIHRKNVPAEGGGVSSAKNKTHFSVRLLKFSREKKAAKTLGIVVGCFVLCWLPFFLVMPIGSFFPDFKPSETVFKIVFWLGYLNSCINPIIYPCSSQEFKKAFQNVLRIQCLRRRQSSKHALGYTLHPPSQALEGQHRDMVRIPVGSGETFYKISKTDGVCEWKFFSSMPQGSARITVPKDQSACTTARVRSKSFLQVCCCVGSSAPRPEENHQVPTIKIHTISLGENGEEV
# Protocol: To evaluate in radioligand binding assays the activity of compounds of the invention, rat adrenergic α1A receptor obtained from Wistar Rat submaxillary glands (Michel, A. et al, Br. J. Pharmacol. 98:883, 1989) in a modified Tris-HCl buffer (50 mM Tris-HCl buffer, pH 7.4, 0.5 mM EDTA) was used. Compounds of the invention were incubated with 0.25 nM [^3H]Prazosin for 60 min at 25° C. Non-specific binding was estimated in the presence of 10 μM phentolamine. Receptor proteins were filtered and washed, the filters were then counted to determine [^3H]Prazosin specifically bound. Compounds of the invention were screened at 1 μM or lower, using 1% DMSO as vehicle. Biochemical assay results are presented as the percent inhibition of specific binding in Table 3.
# T1 sequence (P35367 whole entry): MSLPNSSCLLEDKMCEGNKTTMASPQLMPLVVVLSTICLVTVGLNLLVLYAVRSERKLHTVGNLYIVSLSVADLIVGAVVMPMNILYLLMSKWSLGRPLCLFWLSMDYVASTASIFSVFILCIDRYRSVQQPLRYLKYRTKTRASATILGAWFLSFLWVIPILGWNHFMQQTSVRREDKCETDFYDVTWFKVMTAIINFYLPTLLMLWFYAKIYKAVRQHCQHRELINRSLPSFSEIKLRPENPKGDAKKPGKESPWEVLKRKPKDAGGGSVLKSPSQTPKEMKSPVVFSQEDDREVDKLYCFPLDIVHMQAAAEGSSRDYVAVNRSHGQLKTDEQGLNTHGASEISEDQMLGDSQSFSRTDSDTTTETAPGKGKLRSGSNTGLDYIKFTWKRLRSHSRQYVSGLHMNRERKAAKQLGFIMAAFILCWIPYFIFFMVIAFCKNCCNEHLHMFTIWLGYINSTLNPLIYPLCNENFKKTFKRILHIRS
Compound,inhibition at 0.1 µM [1] [%],inhibition at 0.1 µM [2] [%],inhibition at 0.1 µM [3] [%]
"Cc1cc(C#Cc2ccc(C)nc2)c2c(c1)c1c(n2C)CCN(C)C1 [Compound 12, 2,3,4,5-tetrahydro-2,5,8-trimethyl-6-(2-(6-methylpyridin-3-yl)ethynyl)-1H-pyrido[4,3-b]indole]",-14,3,-12
Cc1cc(CCc2ccc(C)nc2)c2c(c1)c1c(n2C)CCN(C)C1 [Compound 13],28,-11,2
"C#Cc1cc(C)cc2c3c(n(C)c12)CCN(C)C3 [Compound 10, 6-Ethynyl-2,3,4,5-tetrahydro-2,5,8-trimethyl-1H-pyrido[4,3-b]indole]",5,55,6
Cc1cc(-c2ccc(F)cc2)c2c(c1)c1c(n2C)CCN(C)C1 [Compound 7],6,36,1
Cc1ccc(C#Cc2cc(Cl)cc3c4c(n(C)c23)CCN(C)C4)cn1 [Compound 18],12,27,14
Cc1cc(C#Cc2ccncc2)c2c(c1)c1c(n2C)CCN(C)C1 [Compound 17],39,19,-2
C/C(=C\c1cc(C)cc2c3c(n(C)c12)CCN(C)C3)c1ccc(C)nc1 [Compound 15],2,28,3
Cc1cc(/C=C/c2ccc(C)nc2)c2c(c1)c1c(n2C)CCN(C)C1 [Compound 14],25,1,-16
Cc1cc(C#Cc2cccs2)c2[nH]c3c(c2c1)CN(C)CC3 [Compound 8],-3,4,-5
Cc1cc(C#Cc2nccs2)c2[nH]c3c(c2c1)CN(C)CC3 [Compound 16],9,20,-1
Cc1cc(-c2ccncc2)c2c(c1)c1c(n2C)CCN(C)C1 [Compound 9],0,9,4
C/C(=C\c1cc(C)cc2c3c(n(C)c12)CCN(C)C3)c1ccncc1 [Compound 11],-3,-11,-14
